Experimental data taken from PMC9410265, “Citrate Regulates the Saccharomyces cerevisiae Mitochondrial GDP/GTP Carrier (Ggc1p) by Triggering Unidirectional Transport of GTP” (Journal of Fungi, 2022).
Substitutions are numbered along the chain they refer to. Names and notes keep the numbering of the source.

What was measured:
[1] = molecular target: T1, Ggc1p (yeast mitochondrial GDP/GTP carrier) (Saccharomyces cerevisiae, UniProt P38988, K154A); test: radiolabelled GTP uptake into citrate-loaded proteoliposomes, […] s; assay type: biochemical; settings: activator; 5 mM internal citrate; 1 μM external [8-3H]GTP; pH 7.0, 25 °C
T1 construct: gene GGC1; E. coli BL21(DE3) inclusion bodies, sarkosyl-solubilized, reconstituted in liposomes; calculated 33,215 Da with initiator Met
T1 sequence (P38988 1-300 K154A): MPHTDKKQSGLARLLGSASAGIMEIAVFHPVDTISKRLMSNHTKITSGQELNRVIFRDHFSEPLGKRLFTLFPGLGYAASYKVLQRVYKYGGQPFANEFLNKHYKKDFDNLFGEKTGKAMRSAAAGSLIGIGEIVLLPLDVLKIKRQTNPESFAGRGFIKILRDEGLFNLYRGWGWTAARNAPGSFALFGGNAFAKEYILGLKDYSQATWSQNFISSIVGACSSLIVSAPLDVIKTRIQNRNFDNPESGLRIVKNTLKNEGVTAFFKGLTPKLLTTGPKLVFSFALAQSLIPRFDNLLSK

[2] = molecular target: T2, Ggc1p (yeast mitochondrial GDP/GTP carrier) (Saccharomyces cerevisiae, UniProt P38988); test: radiolabelled GTP uptake into proteoliposomes, activation by internal citrate; assay type: biochemical; settings: activator (trans-activation of GTP uniport), not transported; allosteric, site distinct from GTP site; 10 μM external [8-3H]GTP; pH 7.0, 25 °C
T2 construct: gene GGC1; E. coli BL21(DE3) inclusion bodies, sarkosyl-solubilized, reconstituted in liposomes; calculated 33,215 Da with initiator Met
T2 sequence (P38988 1-300): T1 sequence (P38988 1-300 K154A) with A154K

[3] = molecular target: T3, Ggc1p (yeast mitochondrial GDP/GTP carrier) (Saccharomyces cerevisiae, UniProt P38988, R156A); test: radiolabelled GTP uptake into citrate-loaded proteoliposomes, […] s; assay type: biochemical; settings: activator; 5 mM internal citrate; 1 μM external [8-3H]GTP; pH 7.0, 25 °C
T3 construct: gene GGC1; E. coli BL21(DE3) inclusion bodies, sarkosyl-solubilized, reconstituted in liposomes; calculated 33,215 Da with initiator Met
T3 sequence (P38988 1-300 R156A): T1 sequence (P38988 1-300 K154A) with A154K, R156A

[4] = molecular target: T2, Ggc1p (yeast mitochondrial GDP/GTP carrier); test: inhibition of [[…]-3H]GTP uptake into proteoliposomes; assay type: biochemical; settings: GTP/GTP exchange (5 mM internal GTP) and citrate-induced uptake (5 mM internal citrate); 1 μM [8-3H]GTP; pH 7.0, 25 °C
[5] = molecular target: T2, Ggc1p (yeast mitochondrial GDP/GTP carrier); test: [[…]-3H]GTP uptake into effector-loaded proteoliposomes; assay type: biochemical; settings: activator of GTP uniport; 5 mM internal compound; 1 μM external [8-3H]GTP; pH 7.0, 25 °C
[6] = molecular target: T2, Ggc1p (yeast mitochondrial GDP/GTP carrier); test: inhibition of [[…]-3H]GTP uptake into proteoliposomes; assay type: biochemical; settings: citrate-induced GTP uptake (5 mM internal citrate); 1 μM [8-3H]GTP; pH 7.0, 25 °C
purified protein = substrate: Nc1nc2c(ncn2[C@@H]2O[C@H](COP(=O)(O)OP(=O)(O)OP(=O)(O)O)[C@@H](O)[C@H]2O)c(=O)[nH]1; test: purified protein; assay type: biochemical, Saccharomyces cerevisiae; settings: citrate-induced GTP uniport, internal citrate 0.15-0.6 mM, external 0.25-1 μM [8-3H]GTP, pH 7.0, 25 °C, labelled compound

## O=C(O)CC(O)(CC(=O)O)C(=O)O [citrate]
[1]
  % of wild-type uptake: CIGU in K154A and R156A mutants were markedly decreased with respect to that of wild-type
[2]
  EC50: 510 µM
[3]
  % of wild-type uptake: CIGU in K154A and R156A mutants were markedly decreased with respect to that of wild-type

## Cc1cc(C2(c3cc(C)c(O)c(Br)c3)OS(=O)(=O)c3ccccc32)cc(Br)c1O [bromocresol purple]
[4]
  % inhibition at 0.3 mM: tannic acid and bromocresol purple (inhibitors of the mitochondrial glutamate carriers)

## O=C(O)/C=C(/CC(=O)O)C(=O)O [cis-aconitate]
[5]
  [8-3H]GTP uptake into effector-loaded proteoliposomes: GTP uptake was also observed with proteoliposomes containing citrate, isocitrate, cis-aconitate

## CO[C@H](C/C=C\C=C\CC/C=C/C[C@H](C)/C=C/C(=C\C(=O)O)CC(=O)O)/C(C)=C\C=C(/C)C(=O)O [bongkrekic acid]
[6]
  % inhibition at 0.1 mM: CIGU was partially inhibited by p-hydroxymercuribenzoate, carboxyatractyloside and bongkrekate

## O=C(O)C[C@H](C(=O)O)[C@@H](O)C(=O)O [isocitrate]
[5]
  [8-3H]GTP uptake into effector-loaded proteoliposomes: GTP uptake was also observed with proteoliposomes containing citrate, isocitrate, cis-aconitate

B1: Ggc1p (yeast mitochondrial GDP/GTP carrier) (Saccharomyces cerevisiae S288C) (protein)
chain: T1 sequence (P38988 1-300 K154A) with A154K
notes: E. coli BL21(DE3) inclusion bodies, sarkosyl-solubilized, reconstituted in liposomes; calculated 33,215 Da with initiator Met
Purified protein
  Km: 0.72 µM
